{
  "source": "patent US9561238B2",
  "about": "“Pharmaceutical compositions comprising estetrol derivatives for use in cancer therapy” (Donesta Bioscience B. V., priority 2002, dated 2017)",
  "key": {"[1]": {"test_system": "DMH-induced malignant colon tumours", "conditions": "previously published; cited from earlier work"}, "human ERα": {"target": "human ERα (Homo sapiens (Human), UniProt P03372)", "sequence (P03372 whole entry)": "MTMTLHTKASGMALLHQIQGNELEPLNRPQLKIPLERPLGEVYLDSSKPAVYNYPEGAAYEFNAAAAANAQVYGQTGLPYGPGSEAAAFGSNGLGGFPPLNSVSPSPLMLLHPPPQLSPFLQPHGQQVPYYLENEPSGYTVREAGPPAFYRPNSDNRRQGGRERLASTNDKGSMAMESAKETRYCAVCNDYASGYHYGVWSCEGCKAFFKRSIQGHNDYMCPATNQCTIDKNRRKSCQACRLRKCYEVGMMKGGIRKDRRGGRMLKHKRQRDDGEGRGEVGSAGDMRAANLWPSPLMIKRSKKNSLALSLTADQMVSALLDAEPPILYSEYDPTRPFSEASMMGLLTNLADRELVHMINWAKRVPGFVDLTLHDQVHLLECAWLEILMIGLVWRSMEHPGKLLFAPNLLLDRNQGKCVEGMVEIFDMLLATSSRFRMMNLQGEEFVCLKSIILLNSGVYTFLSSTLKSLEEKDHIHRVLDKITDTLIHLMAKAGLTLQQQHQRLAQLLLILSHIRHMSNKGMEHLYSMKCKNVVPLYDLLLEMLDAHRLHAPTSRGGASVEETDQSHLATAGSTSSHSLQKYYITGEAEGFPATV", "test": "Competitive steroid binding assay, ERα", "conditions": "preference for binding to ERα protein over ERβ, from Ki values"}, "[2]": {"test_system": "DMH-induced malignant colon tumours", "test": "1,2 dimethylhydrazine (DMH)-induced colon cancer in ovariectomized female rats", "type": "in vivo, rat", "conditions": "estetrol orally 0.1 to 3.0 mg/kg/day; necropsy 15 weeks after first DMH", "description": "A study is performed to examine the effect of estetrol on 1,2 dimethylhydrazine (DMH)-induced colon cancer in ovariectomized female rats.\nDMH-induced cancer development is chosen as a model of “estrogen-suppressed tumours”, because it mimics the human situation of colon carcinomas closely:\nOne week prior to induction of colon carcinomas, fifty sexually mature female Sprague-Dawley rats, weighing between 150 and 200 gram (Harlan, The Netherlands), are surgically castrated via removal of the ovaries. During the experiment, rats are maintained in separate plastic cages at 12 hour light/dark cycles and allowed free access to food (Purina chow) and water.\nAnimals are randomly allocated to one of five groups, each consisting of 10 rats, which, starting three days after ovariectomy and ending at autopsy, receive placebo or estetrol treatment during the experiment as follows: • Group 1 animals receiving placebo oral treatment with 3.0 ml/kg/day vehicle (20% wt/vol solution of hydroxypropyl-beta-cyclodextrin in water); • Group 2 animals receiving estetrol orally at a single daily dose of 0.1 mg/kg; • Group 3 animals receiving estetrol orally at a single daily dose of 0.3 mg/kg; • Group 4 animals receiving estetrol orally at a single daily dose of 1.0 mg/kg; • Group 5 animals receiving estetrol orally at a single daily dose of 3.0 mg/kg. […]"}, "[3]": {"test_system": "DMBA-induced mammary tumours", "test": "7,12-dimethyl-benz(a)anthracene (DMBA)-induced tumour model in rats", "type": "in vivo, rat", "description": "In order to further assess the anti-tumour efficacy of the estrogenic substances of the present invention, estetrol was tested in the 7,12-dimethyl-benz(a)anthracene (DMBA)-induced tumour model in rats. This model, originally developed by Huggins et al., 1961 (Nature, 19, 204-207), has been widely used and is a generally accepted model with predictive value for anti-tumour agents in humans.\nEighty-four female Sprague-Dawley rats (Harlan, The Netherlands) were group housed, maintained in a 12-hr light/dark environment, and fed a Soya Free Diet (SDS England) and water ad libitum. Animals were weighed on a weekly basis. One week prior to induction of mammary carcinoma, 12 animals (aged 43 days) were surgically castrated via removal of the ovaries. At the age of 50 days, all animals were administered a single oral dose of 16 mg DMBA to induce tumour development. […]\nDuring the treatment period of 8 weeks, the emergence of palpable tumours and number of tumours were determined weekly. […]"}, "[4]": {"test": "Agonistic models of in vivo estrogenicity (bone resorption, hot flushing, vaginal cornification), previous studies", "conditions": "for in vivo estrogenicity in preventing bone resorption, prevention of hot flushing and vaginal cornification: 0.125 mg/kg/day EE compared with […] E4; for potency in agonistic models of preventing bone resorption, prevention of hot flushing and vaginal cornification: […] EE compared with 0.5 mg/kg/day E4"}, "[5]": {"test_system": "DMBA-induced mammary tumours", "conditions": "literature; cited from earlier work"}},
  "data": [
    {"smiles": "C[C@]12CC[C@@H]3c4ccc(O)cc4CC[C@H]3[C@@H]1CC[C@@H]2O", "note": "[E2, 17β-estradiol]", "values": [
      {"measurement": "protection in the DMH model", "setting": "[1]", "value": "confers protection"}
    ]},
    {"smiles": "C[C@]12CC[C@@H]3c4ccc(O)cc4CC[C@H]3[C@@H]1[C@@H](O)[C@@H](O)[C@@H]2O", "note": "[E4, 1,3,5(10)-estratrien-3,15α,16α,17β-tetrol]", "values": [
      {"measurement": "Relative ERα/ERβ preference", "setting": "human ERα", "value": 400, "unit": "%"},
      {"measurement": "number of malignant tumours", "setting": "[2]", "value": "declines as a function of increasing the daily oral estetrol dose"},
      {"measurement": "preventing growth of DMBA-induced tumours, compared with tamoxifen", "setting": "[3]; E4 […] vs tamoxifen 3 mg/kg/day orally", "value": "as effective as tamoxifen"},
      {"measurement": "in vivo estrogenicity in preventing bone resorption, prevention of hot flushing and vaginal cornification", "setting": "[4]", "value": "equipotency"},
      {"measurement": "potency in agonistic models of preventing bone resorption, prevention of hot flushing and vaginal cornification", "setting": "[4]", "value": "equipotency"}
    ]},
    {"smiles": "C#C[C@]1(O)CC[C@H]2[C@@H]3CCc4cc(O)ccc4[C@H]3CC[C@@]21C", "note": "[EE, 17α-ethinylestradiol]", "values": [
      {"measurement": "in vivo estrogenicity in preventing bone resorption, prevention of hot flushing and vaginal cornification", "setting": "[4]", "value": "equipotency"},
      {"measurement": "potency in agonistic models of preventing bone resorption, prevention of hot flushing and vaginal cornification", "setting": "[4]", "value": "equipotency"}
    ]},
    {"smiles": "CC/C(=C(\\c1ccccc1)c1ccc(OCCN(C)C)cc1)c1ccccc1", "note": "[tamoxifen]", "values": [
      {"measurement": "development of mammary tumours", "setting": "[3]; tamoxifen 3 mg/kg/day orally, 8 weeks", "value": "inhibiting the development of mammary tumours"},
      {"measurement": "anti-tumour treatment in the DMBA model", "setting": "[5]", "value": "effective anti-tumour treatments"}
    ]}
  ]
}
